From ChEMBL document CHEMBL4256946, “Thiourea compounds and their use as inhibitors of sirt2 or sirt5” (2016)
Calls of active or inactive are those of the source. The calls are words filed in the database; no cut-off is given here.

Legend:
[1] = biological target: NAD-dependent protein deacylase sirtuin-5, mitochondrial (Homo sapiens) (UniProt Q9NXA8); experiment: Substrate activity at SIRT5 (unknown origin) assessed as compound-NAD covalent intermediate formation by measuring parent compound consumption measured after 18 hrs by liquid chromatography-mass spectrometry method
Sequence of NAD-dependent protein deacylase sirtuin-5, mitochondrial (Homo sapiens) (Q9NXA8 37-310 limits assumed): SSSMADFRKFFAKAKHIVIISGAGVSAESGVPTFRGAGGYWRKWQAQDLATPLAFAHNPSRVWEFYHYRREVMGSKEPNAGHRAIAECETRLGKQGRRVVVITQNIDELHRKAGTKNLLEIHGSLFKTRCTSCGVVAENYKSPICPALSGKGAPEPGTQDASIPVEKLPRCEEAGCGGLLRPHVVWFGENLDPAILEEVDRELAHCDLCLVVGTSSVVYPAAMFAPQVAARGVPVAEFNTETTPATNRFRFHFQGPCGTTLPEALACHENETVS

[2] = biological target: NAD-dependent protein deacylase sirtuin-5, mitochondrial (Homo sapiens) (UniProt Q9NXA8); experiment: (§1) Substrate activity at SIRT5 (unknown origin) assessed as compound-NAD covalent intermediate formation by measuring 2-((2R,3R,4S,5R)-5-((((((2R,3S,4R,5R)-5-(6-amino-9H-purin-9-yl)-3,4-dihydroxytetrahydrofuran-2-yl)methoxy)(hydroxy)phosphoryloxy)(hydroxy)phosphoryloxy)methyl)-3,4-dihydroxytetrahydrofuran-2-yl)-1-((S)-5-(benzyloxycarbonylamino)-6-oxo-6-(phenylamino)hexyl)-3-(2-carboxyethyl)isothiouronium level measured after 15 mins by liquid chromatography-mass spectrometry method
[3] = biological target: NAD-dependent protein deacylase sirtuin-5, mitochondrial (Homo sapiens) (UniProt Q9NXA8); experiment: as §1, with “5 hrs” for “15 mins”
[4] = biological target: NAD-dependent protein deacylase sirtuin-5, mitochondrial (Homo sapiens) (UniProt Q9NXA8); experiment: Substrate activity at SIRT5 (unknown origin) assessed as compound-NAD covalent intermediate formation by measuring (S)-3,11-dioxo-1-phenyl-5-(phenylcarbamoyl)-2-oxa-4,10,12-triazapentadecan-15-oic acid level measured after 18 hrs by liquid chromatography-mass spectrometry method
[5] = biological target: NAD-dependent protein deacylase sirtuin-5, mitochondrial (Homo sapiens) (UniProt Q9NXA8); experiment: Substrate activity at SIRT5 (unknown origin) assessed as compound-NAD covalent intermediate formation by measuring 3-((3aR,5R,6R,6aR)-5-((((((2R,3S,4R,5R)-5-(6-amino-9H-purin-9-yl)-3,4-dihydroxytetrahydrofuran-2-yl)methoxy)(hydroxy)phosphoryloxy)(hydroxy)phosphoryloxy)methyl)-2-((S)-5-(benzyloxycarbonylamino)-6-oxo-6-(phenylamino)hexylamino)-6-hydroxytetrahydrofuro[2,3-d][1,3]oxathiol-2-ylamino)propanoic acid level measured after 5 hrs by liquid chromatography-mass spectrometry method
[6] = biological target: T1, NAD-dependent protein deacetylase sirtuin-2 (Homo sapiens) (UniProt Q8IXJ6); experiment: Inhibition of SIRT2 (unknown origin) assessed as reduction in enzyme-catalyzed desuccinylation reaction at 256 uM
T1 sequence (whole entry): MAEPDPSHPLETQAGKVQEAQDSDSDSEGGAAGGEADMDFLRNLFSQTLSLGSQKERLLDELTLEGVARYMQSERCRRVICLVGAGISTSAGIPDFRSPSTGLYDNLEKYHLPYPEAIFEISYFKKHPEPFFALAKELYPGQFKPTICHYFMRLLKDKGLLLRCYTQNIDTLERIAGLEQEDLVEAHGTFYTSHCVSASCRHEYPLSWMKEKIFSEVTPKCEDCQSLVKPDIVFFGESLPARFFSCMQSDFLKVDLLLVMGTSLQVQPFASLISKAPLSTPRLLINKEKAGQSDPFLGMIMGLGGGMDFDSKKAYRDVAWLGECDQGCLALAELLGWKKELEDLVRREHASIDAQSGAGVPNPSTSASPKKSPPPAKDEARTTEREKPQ

[7] = biological target: T2, NAD-dependent protein deacetylase sirtuin-1 (Homo sapiens) (UniProt Q96EB6); experiment: Inhibition of SIRT1 (unknown origin) assessed as reduction in enzyme-catalyzed desuccinylation reaction at 256 uM
T2 sequence (whole entry): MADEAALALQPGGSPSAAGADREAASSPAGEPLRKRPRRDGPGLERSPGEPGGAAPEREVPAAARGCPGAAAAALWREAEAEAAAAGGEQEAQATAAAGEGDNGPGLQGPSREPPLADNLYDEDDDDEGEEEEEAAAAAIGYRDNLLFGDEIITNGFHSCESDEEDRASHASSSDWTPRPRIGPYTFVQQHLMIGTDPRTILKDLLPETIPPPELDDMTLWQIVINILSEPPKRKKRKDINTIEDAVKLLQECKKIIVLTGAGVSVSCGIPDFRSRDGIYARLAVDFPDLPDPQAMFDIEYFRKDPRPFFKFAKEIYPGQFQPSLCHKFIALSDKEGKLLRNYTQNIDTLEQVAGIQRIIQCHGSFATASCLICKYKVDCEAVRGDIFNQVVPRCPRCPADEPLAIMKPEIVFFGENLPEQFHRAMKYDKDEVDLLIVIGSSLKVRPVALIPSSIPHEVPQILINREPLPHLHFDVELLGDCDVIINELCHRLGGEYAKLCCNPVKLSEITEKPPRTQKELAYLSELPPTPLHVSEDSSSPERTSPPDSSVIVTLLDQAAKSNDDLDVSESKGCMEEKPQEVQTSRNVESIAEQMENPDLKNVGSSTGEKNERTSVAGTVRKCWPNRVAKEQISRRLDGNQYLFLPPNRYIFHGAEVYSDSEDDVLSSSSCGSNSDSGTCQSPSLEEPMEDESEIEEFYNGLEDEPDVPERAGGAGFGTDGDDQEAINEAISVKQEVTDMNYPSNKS

[8] = biological target: NAD-dependent protein deacylase sirtuin-5, mitochondrial (Homo sapiens) (UniProt Q9NXA8); experiment: Substrate activity at SIRT5 (unknown origin) assessed as compound-NAD covalent intermediate formation by measuring 3-((3aR,5R,6R,6aR)-5-((((((2R,3S,4R,5R)-5-(6-amino-9H-purin-9-yl)-3,4-dihydroxytetrahydrofuran-2-yl)methoxy)(hydroxy)phosphoryloxy)(hydroxy)phosphoryloxy)methyl)-2-((S)-5-(benzyloxycarbonylamino)-6-oxo-6-(phenylamino)hexylamino)-6-hydroxytetrahydrofuro[2,3-d][1,3]oxathiol-2-ylamino)propanoic acid level measured after 15 mins by liquid chromatography-mass spectrometry method
[9] = biological target: NAD-dependent protein deacylase sirtuin-5, mitochondrial (Homo sapiens) (UniProt Q9NXA8); experiment: (§2) Substrate activity at SIRT5 (unknown origin) assessed as compound-NAD covalent intermediate formation by measuring 2-((2R,3R,4R,5R)-5-((((((2R,3S,4R,5R)-5-(6-amino-9H-purin-9-yl)-3,4-dihydroxytetrahydrofuran-2-yl)methoxy)(hydroxy)phosphoryloxy)(hydroxy)phosphoryloxy)methyl)-4-hydroxy-2-mercaptotetrahydrofuran-3-yl)-1-((S)-5-(benzyloxycarbonylamino)-6-oxo-6-(phenylamino)hexyl)-3-(2-carboxyethyl)isouronium level measured after 15 mins by liquid chromatography-mass spectrometry method
[10] = biological target: NAD-dependent protein deacylase sirtuin-5, mitochondrial (Homo sapiens) (UniProt Q9NXA8); experiment: Mechanism based inhibition of SIRT5 (unknown origin) incubated in presence of NAD for 15 mins by liquid chromatography-mass spectrometry method
[11] = biological target: NAD-dependent protein deacylase sirtuin-5, mitochondrial (Homo sapiens) (UniProt Q9NXA8); experiment: as §2, with “7 hrs” for “15 mins”
[12] = biological target: T3, NAD-dependent protein deacetylase sirtuin-2 (Homo sapiens, UniProt Q8IXJ6); experiment: Inhibition of SIRT2 (unknown origin) assessed as reduction in enzyme-catalyzed desuccinylation reaction
T3 sequence (Q8IXJ6 whole entry): T1 sequence (whole entry)

[13] = biological target: T4, NAD-dependent protein deacetylase sirtuin-3, mitochondrial (Homo sapiens, UniProt Q9NTG7); experiment: Inhibition of SIRT3 (unknown origin) assessed as reduction in enzyme-catalyzed desuccinylation reaction
T4 sequence (Q9NTG7 whole entry): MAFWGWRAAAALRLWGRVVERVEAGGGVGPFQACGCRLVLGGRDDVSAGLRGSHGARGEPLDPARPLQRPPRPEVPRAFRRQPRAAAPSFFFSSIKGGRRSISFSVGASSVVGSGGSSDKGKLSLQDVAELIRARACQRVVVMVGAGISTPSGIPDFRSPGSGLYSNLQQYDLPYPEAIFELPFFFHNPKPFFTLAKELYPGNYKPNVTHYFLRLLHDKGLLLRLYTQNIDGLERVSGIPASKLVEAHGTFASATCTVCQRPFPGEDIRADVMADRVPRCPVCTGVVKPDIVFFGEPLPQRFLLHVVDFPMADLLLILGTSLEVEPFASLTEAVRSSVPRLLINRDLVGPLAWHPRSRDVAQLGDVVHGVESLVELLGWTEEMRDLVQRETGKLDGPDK

[14] = biological target: T5, NAD-dependent protein deacetylase sirtuin-1 (Homo sapiens, UniProt Q96EB6); experiment: Inhibition of SIRT1 (unknown origin) assessed as reduction in enzyme-catalyzed desuccinylation reaction
T5 sequence (Q96EB6 whole entry): T2 sequence (whole entry)

MDA-MB-231 = experiment: Inhibition of foci formation in human MDA-MB-231 cells at 10 to 100 uM; assay type: functional, cell-based
MCF7 [15] = experiment: Inhibition of foci formation in human MCF7 cells at 10 to 100 uM; assay type: functional, cell-based
[16] = biological target: NAD-dependent protein deacylase sirtuin-5, mitochondrial (Homo sapiens) (UniProt Q9NXA8); experiment: Inhibition of SIRT5 (unknown origin) assessed as reduction in enzyme-catalyzed desuccinylation reaction at 200 uM
MDA-MB-468 = experiment: Inhibition of foci formation in human MDA-MB-468 cells at 10 to 100 uM; assay type: functional, cell-based
[17] = biological target: NAD-dependent protein deacylase sirtuin-5, mitochondrial (Homo sapiens) (UniProt Q9NXA8); experiment: Inhibition of SIRT5 in human MCF7 cells assessed as increase in protein succinylation level at 100 uM after 48 to 72 hrs by Western blot analysis; assay type: cell-based
[18] = biological target: NAD-dependent protein deacylase sirtuin-6 (Homo sapiens, UniProt Q8N6T7); experiment: Inhibition of SIRT6 (unknown origin) assessed as reduction in enzyme-catalyzed desuccinylation reaction
Sequence of NAD-dependent protein deacylase sirtuin-6 (Q8N6T7 whole entry): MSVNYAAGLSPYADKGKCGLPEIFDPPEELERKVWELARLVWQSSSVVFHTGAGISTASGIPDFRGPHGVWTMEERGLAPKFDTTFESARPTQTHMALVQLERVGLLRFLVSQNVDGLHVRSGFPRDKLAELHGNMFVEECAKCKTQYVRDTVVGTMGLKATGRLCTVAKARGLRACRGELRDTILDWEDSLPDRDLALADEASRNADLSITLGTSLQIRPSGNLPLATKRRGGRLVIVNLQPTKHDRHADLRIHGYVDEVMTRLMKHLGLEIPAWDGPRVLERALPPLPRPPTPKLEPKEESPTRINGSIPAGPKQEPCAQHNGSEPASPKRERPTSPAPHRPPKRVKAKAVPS

MCF7 [19] = experiment: Growth inhibition of human MCF7 cells at 25 uM incubated for 10 days by crystal violet staining based assay; assay type: functional, cell-based
[20] = biological target: NAD-dependent protein deacylase sirtuin-5, mitochondrial (Homo sapiens) (UniProt Q9NXA8); experiment: Inhibition of SIRT5 in human HeLa cells assessed as increase in protein succinylation level at 100 uM after 24 to 48 hrs by Western blot analysis; assay type: cell-based

O=C(O)CC(=S)NCCCC[C@H](NC(=O)OCc1ccccc1)C(=O)Nc1ccccc1
Activity [1]: Active | Activity [2]: Active | Activity [3]: Active | Activity [4]: Active | Activity [5]: Active | inhibition [6]: inactive | inhibition [7]: inactive | Activity [8]: Active | Activity [9]: Active | inhibition [10]: Active | Activity [11]: Active

O=C(O)CCNC(=S)NCCCC[C@H](NC(=O)OCc1ccccc1)C(=O)Nc1cccc(O)c1
IC50 [12]: Not Active | IC50 [13]: Not Active | IC50 [14]: Not Active

O=C(O)CCCC(=S)NCCCC[C@H](NC(=O)OCc1ccccc1)C(=O)Nc1ccccc1
Activity [1]: inactive | inhibition [6]: inactive | inhibition [7]: inactive

CCOC(=O)CCNC(=S)NCCCC[C@H](NC(=O)OCc1ccccc1)C(=O)Nc1cccc(O)c1
inhibition (MDA-MB-231): Dose-dependent effect | inhibition (MCF7 [15]): Dose-dependent effect | IC50 [13]: Not Active | inhibition [16]: 20% | inhibition (MDA-MB-468): Dose-dependent effect | inhibition [17]: Active | IC50 [18]: Not Active

CCOC(=O)CCNC(=S)NCCCC[C@H](NC(=O)OCc1ccccc1)C(=O)NC1CCSc2ccccc21 (some centres not stated)
growth inhibition (GI) (MCF7 [19]): Active | inhibition [20]: Active

O=C(O)CCNC(=S)NCCCC[C@H](NC(=O)OCc1ccccc1)C(=O)NC1CCSc2ccccc21 (some centres not stated)
IC50 [12]: Not Active | growth inhibition (GI) (MCF7 [19]): inactive | IC50 [13]: Not Active | IC50 [14]: Not Active

O=C(O)CCC(=S)NCCCC[C@H](NC(=O)OCc1ccccc1)C(=O)Nc1ccccc1
inhibition [6]: inactive | inhibition [7]: inactive
